Values quoted from earlier work in patent publication US20150147306A1, “COMPOSITION FOR TREATING A CIRCADIAN RHYTHM DISORDER” (priority 2012, published 2015).

Details: in humans

Structure (SMILES): COc1ccc2[nH]cc(CCNC(C)=O)c2c1 [melatonin]
- half-life in the serum: 35 to 50 min
